Measurements: ChEMBL document CHEMBL5042518, “Design of a Potent TLX Agonist by Rational Fragment Fusion” (J Med Chem, 2022)
Values belong to the molecule of their own block, whether it stands above or below them. Calls of active or inactive are those of the source. The calls are words filed in the database; no cut-off is given here.

How the values were obtained:
HEK-293T [1] = assay: Cytotoxicity against human HEK293T cells assessed as reduction in cell viability at >=10 uM incubated for 24 hrs by WST-1 assay; type: toxicity, cell-based
[2] = target: T1, Nuclear receptor subfamily 2 group E member 1 (Homo sapiens, UniProt Q9Y466); assay: Agonist activity at human Gal4-fused TLX LBD expressed in human HEK293T cells coexpressing Gal4-VP16 assessed as repressor activity of receptor by measuring decrease in reporter activity at 30 uM measured after 14 hrs by Dual-Glo Luciferase assay; type: cell-based
T1 sequence (Q9Y466 whole entry, the tested form may be a part): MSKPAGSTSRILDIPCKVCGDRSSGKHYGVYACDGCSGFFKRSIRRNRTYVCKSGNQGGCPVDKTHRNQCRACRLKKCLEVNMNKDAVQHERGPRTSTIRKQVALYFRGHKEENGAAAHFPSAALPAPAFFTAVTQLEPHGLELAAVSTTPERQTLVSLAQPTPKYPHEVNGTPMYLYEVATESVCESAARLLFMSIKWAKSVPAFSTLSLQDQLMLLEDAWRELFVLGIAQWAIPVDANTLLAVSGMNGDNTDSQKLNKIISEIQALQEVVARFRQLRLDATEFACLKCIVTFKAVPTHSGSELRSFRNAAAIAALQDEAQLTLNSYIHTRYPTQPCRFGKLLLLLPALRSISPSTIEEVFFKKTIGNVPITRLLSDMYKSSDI

[3] = target: T1, Nuclear receptor subfamily 2 group E member 1; assay: Agonist activity at human Gal4-fused TLX LBD expressed in human HEK293T cells coexpressing Gal4-VP16 assessed as repressor activity of receptor by measuring decrease in reporter activity measured after 14 hrs by Dual-Glo Luciferase assay; type: cell-based
HEK-293T [4] = assay: Effect on Gal4-VP16 plasmid transfected in human HEK293T cells assessed as reporter activity at 100 uM incubated for 14 hrs by luciferase assay; type: functional, cell-based
[5] = target: T1, Nuclear receptor subfamily 2 group E member 1; assay: Agonist activity at human full length Gal4-fused TLX transfected in human HEK293T cells coexpressing pFR-TAE-Luc assessed as repressor activity of receptor by measuring decrease in reporter activity by dual-glo luciferase assay; type: cell-based
[6] = target: T1, Nuclear receptor subfamily 2 group E member 1; assay: Binding affinity to recombinant TLX LBD (unknown origin) by differential scanning fluorometry
[7] = target: T1, Nuclear receptor subfamily 2 group E member 1; assay: Destabilization of recombinant TLX LBD (unknown origin) assessed as change in enthalpy at 100 uM by isothermal titration calorimetry; settings: filed as agonist
[8] = target: T1, Nuclear receptor subfamily 2 group E member 1; assay: Agonist activity at TLX (unknown origin) assessed as induction of receptor oligomerization using sGFP-labeled TLX LBD as acceptor and biotin TLX LBD as donor measured after 20 hrs incubation at RT and 2 hrs at 37 degC by HTRF assay
HEK-293T [9] = assay: Cytotoxicity against human HEK293T cells assessed as reduction in cell viability incubated for 24 hrs by WST-1 assay; type: toxicity, cell-based
[10] = Half life in Sprague-Dawley rat liver microsomes at 10 uM pretreated for 30 mins with NADPH regenerating system followed by incubation with microsomes for 60 mins by HPLC analysis; type: ADME, Microsome; settings: time 90 min
[11] = target: T1, Nuclear receptor subfamily 2 group E member 1; assay: Agonist activity at TLX in human T98G cells assessed as upregulation of SIRT1 mRNA expression at 3 uM measured after 8 hrs by qRT-PCR analysis; type: cell-based; settings: filed as agonist
T98G [12] = assay: Upregulation of TLX gene expression in human T98G cells at 3 uM measured after 8 hrs by qRT-PCR analysis; type: functional, cell-based
[13] = Solubility of the compound in DSF buffer in presence of 2% DMSO; type: physicochemical
[14] = target: T1, Nuclear receptor subfamily 2 group E member 1; assay: Destabilization of recombinant TLX LBD (unknown origin) assessed as change in entropy at 100 uM by isothermal titration calorimetry; settings: filed as agonist
[15] = target: T1, Nuclear receptor subfamily 2 group E member 1; assay: Agonist activity at TLX in human T98G cells assessed as upregulation of SIRT1 mRNA expression at 30 uM measured after 8 hrs by qRT-PCR analysis; type: cell-based; settings: filed as agonist
T98G [16] = assay: Upregulation of TLX gene expression in human T98G cells at 30 uM measured after 8 hrs by qRT-PCR analysis; type: functional, cell-based
[17] = target: T1, Nuclear receptor subfamily 2 group E member 1; settings: filed as agonist, dose 100.0 µM
[18] = Drug degradation in Sprague-Dawley rat liver microsomes at 10 uM pretreated for 30 mins with NADPH regenerating system followed by incubation with microsomes for 30 mins by HPLC analysis; type: ADME, Microsome; settings: time 60 min, read-out: Drug degradation
T98G [19] = assay: Upregulation of TLX gene expression in human T98G cells at 10 uM measured after 8 hrs by qRT-PCR analysis; type: functional, cell-based
HEK-293T [20] = assay: Cytotoxicity against human HEK293T cells assessed as reduction in cell viability at >10 uM incubated for 24 hrs by WST-1 assay; type: toxicity, cell-based
[21] = target: T1, Nuclear receptor subfamily 2 group E member 1; assay: Agonist activity at human Gal4-fused TLX LBD expressed in human HEK293T cells coexpressing Gal4-VP16 assessed as repressor activity of receptor by measuring decrease in reporter activity at 0.03 to 30 uM measured after 14 hrs by Dual-Glo Luciferase assay; type: cell-based; settings: filed as agonist, dose 0.03-30 µM
[22] = target: T1, Nuclear receptor subfamily 2 group E member 1; assay: Agonist activity at human full length Gal4-fused TLX transfected in human HEK293T cells coexpressing pFR-TAE-Luc assessed as repressor activity of receptor by measuring decrease in reporter activity at 0.03 to 30 uM by dual-glo luciferase assay; type: cell-based; settings: dose 0.03-30 µM

SMILES: Cc1cn(-c2cc(NC(=O)C(c3ccccc3)c3ccccc3)cc(C(F)(F)F)c2)cn1
- Activity (HEK-293T [1]): Toxic

SMILES: Cc1cn(-c2cc(NC(=O)C3CCc4[nH]c5ccccc5c4C3)cc(C(F)(F)F)c2)cn1 (stereo not drawn)
- Activity [2]: inactive

SMILES: Cc1cn(-c2cc(NC(=O)CCCc3ccc(-c4ccccc4)cc3)cc(C(F)(F)F)c2)cn1
- EC50 [3]: 1.2 µM

SMILES: Cc1cn(-c2cc(N)cc(C(F)(F)F)c2)cn1
- Activity (HEK-293T [4]): inactive
- EC50 [3]: 20 µM
- solubility [13]: Soluble
- Activity [15]: Active
- Activity (T98G [16]): inactive
- ΔTm [17]: -1.69 °C

SMILES: Cc1cc(C(=O)N2CCN(C(c3ccccc3)c3ccccc3)CC2)nn1C
- Activity (HEK-293T [9]): Non-Toxic
- metabolised at 1 h, 10 µM [18]: 100%
- Activity (T98G [19]): inactive
- ΔTm [17]: -1.08 °C

SMILES: CC1(C)CC=C(c2ccccc2)c2cc(/C=C/c3ccc(C(=O)O)cc3)ccc21
- Activity (HEK-293T [20]): Toxic
- solubility [13]: Soluble
- Activity [21]: Active
- Activity [22]: inactive

The next lines start with results.

- EC50 [3]: 5 µM
SMILES: Cc1cn(-c2cc(NC(=O)N3CCN(c4ccc(O)cc4)CC3)cc(C(F)(F)F)c2)cn1

- EC50 [3]: 3 µM
SMILES: COc1cc(N)c(Cl)cc1C(=O)Nc1cc(-n2cnc(C)c2)cc(C(F)(F)F)c1

- Activity [2]: inactive
SMILES: Cc1cn(-c2cc(NC(=O)COc3cccc4ccccc34)cc(C(F)(F)F)c2)cn1

- EC50 [3]: 0.25 µM
- EC50 [5]: 0.7 µM
- Kd [6]: 1.6 µM
- deltaH [7]: 114 kcal/mol
- EC50 [8]: 5 µM
- half-life at 10 µM [10]: 2.37 h
- Activity [11]: Active
- solubility [13]: Soluble
- TdeltaS [14]: 123 kcal/mol
SMILES: CCCCOc1cc(C(=O)Nc2cc(-n3cnc(C)c3)cc(C(F)(F)F)c2)c2ccccc2n1
- Activity (HEK-293T [4]): inactive
- Activity (HEK-293T [9]): Non-Toxic
- Activity (T98G [12]): inactive

- EC50 [3]: 11 µM
SMILES: CC(=O)Nc1cc(-n2cnc(C)c2)cc(C(F)(F)F)c1
